Data on 22 compounds can be found in patent US9266878B2, “Phosphatidylinositol 3-kinase inhibitors” (Gilead Calistoga LLC, priority 2012, dated 2016).

SMILES strings stand for the structures. A value given as a limit tells only on which side of the number the result lay.

Holding throughout (test): Enzymatic activity of PI3K isoforms, TR-FRET assay (PIP3 formation)
Format in all cases: biochemical
(In general: In TR-FRET formats the signal depends on donor and acceptor labels being close together.)

One assay has as its target PI3Kα (Homo sapiens (Human), UniProt P42336). As to conditions: bound given in uM. In outline: (§1)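 Heterodimeric recombinant class I PI3K; PIP3 product displaces labeled PIP3 from GRP-1 PH domain, lowering TR-FRET. Reaction 30 min at 25° C, stopped with 10 mM EDTA, 10 nM labeled-PIP3, 35 nM Eu-GRP-1. Read Ex 340 nm, Em 615/665 nm; IC50 in nM.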
The target in another assay is PI3Kδ (Homo sapiens (Human), UniProt O00329). The note with it: bound given in nM. In outline: as §1
Sequence of PI3Kδ (O00329 whole entry, the tested form may be a part, canonical isoform): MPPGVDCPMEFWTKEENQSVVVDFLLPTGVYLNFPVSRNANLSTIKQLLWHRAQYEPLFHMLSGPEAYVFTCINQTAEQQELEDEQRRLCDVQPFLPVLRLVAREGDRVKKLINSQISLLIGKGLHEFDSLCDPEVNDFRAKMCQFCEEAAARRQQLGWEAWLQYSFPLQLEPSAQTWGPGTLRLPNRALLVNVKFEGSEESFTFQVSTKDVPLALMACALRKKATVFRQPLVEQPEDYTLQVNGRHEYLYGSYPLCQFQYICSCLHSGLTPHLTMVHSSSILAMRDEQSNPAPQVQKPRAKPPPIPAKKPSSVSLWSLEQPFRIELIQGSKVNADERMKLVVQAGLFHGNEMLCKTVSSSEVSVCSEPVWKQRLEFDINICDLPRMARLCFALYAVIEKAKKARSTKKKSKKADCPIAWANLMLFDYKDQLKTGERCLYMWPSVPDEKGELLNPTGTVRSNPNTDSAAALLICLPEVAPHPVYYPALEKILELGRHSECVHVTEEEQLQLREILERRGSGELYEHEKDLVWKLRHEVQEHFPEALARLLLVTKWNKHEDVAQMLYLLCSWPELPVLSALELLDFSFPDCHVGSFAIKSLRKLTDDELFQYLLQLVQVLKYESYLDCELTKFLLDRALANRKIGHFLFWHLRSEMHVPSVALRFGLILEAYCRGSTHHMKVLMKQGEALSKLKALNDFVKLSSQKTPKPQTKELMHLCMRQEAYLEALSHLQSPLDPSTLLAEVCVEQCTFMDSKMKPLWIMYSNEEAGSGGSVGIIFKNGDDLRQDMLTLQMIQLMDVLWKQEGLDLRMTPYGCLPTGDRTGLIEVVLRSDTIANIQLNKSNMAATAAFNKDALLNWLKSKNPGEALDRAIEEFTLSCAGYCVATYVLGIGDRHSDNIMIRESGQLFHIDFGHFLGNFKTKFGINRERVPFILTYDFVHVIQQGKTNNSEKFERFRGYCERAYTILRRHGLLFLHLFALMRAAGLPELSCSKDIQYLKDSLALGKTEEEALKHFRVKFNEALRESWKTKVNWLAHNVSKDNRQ
Sequence of PI3Kδ (P27986 whole entry partner, the tested form may be a part, canonical isoform): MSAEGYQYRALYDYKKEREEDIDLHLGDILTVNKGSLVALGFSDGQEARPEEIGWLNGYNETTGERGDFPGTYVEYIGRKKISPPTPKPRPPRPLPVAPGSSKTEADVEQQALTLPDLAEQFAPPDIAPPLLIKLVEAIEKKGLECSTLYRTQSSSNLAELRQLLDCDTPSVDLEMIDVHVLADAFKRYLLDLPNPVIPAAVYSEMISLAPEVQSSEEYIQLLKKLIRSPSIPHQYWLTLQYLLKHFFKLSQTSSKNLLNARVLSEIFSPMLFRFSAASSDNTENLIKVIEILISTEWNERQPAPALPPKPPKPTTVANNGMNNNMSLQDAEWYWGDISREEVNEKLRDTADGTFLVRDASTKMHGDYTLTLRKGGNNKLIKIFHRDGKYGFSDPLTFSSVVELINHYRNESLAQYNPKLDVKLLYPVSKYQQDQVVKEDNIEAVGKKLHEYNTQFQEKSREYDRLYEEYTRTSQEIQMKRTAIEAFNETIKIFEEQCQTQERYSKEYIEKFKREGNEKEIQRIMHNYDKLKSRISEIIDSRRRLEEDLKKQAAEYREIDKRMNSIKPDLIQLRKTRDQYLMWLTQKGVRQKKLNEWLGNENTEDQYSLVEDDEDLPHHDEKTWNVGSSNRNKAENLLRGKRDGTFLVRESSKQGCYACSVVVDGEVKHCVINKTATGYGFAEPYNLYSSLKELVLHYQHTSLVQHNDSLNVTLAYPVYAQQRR
The next assay has as its target PI3Kβ (Homo sapiens (Human), UniProt P42338). The method, then: (§2) Enzymatic activity of the class I PI3K isoforms was measured using a time-resolved fluorescence resonance energy transfer (TR-FRET) assay that monitors formation of the product 3,4,5-inositol triphosphate molecule (PIP3), as it competes with fluorescently labeled PIP3 for binding to the GRP-1 pleckstrin homology domain protein. An increase in […] product results in a decrease in TR-FRET signal as the labeled fluorophore is displaced from the GRP-1 protein binding site.
(§3) Class I PI3K isoforms were expressed and purified as heterodimeric recombinant proteins. All assay reagents and buffers for the TR-FRET assay were purchased from Millipore.
(§4) IC50 are reported in units of nM.

The next assay addresses PI3Kγ (Homo sapiens (Human), UniProt P48736). As to conditions: bound given in uM. Here is the method:
as §2, §3, §4

Sequence of PI3Kβ (P42338 whole entry, the tested form may be a part, canonical isoform): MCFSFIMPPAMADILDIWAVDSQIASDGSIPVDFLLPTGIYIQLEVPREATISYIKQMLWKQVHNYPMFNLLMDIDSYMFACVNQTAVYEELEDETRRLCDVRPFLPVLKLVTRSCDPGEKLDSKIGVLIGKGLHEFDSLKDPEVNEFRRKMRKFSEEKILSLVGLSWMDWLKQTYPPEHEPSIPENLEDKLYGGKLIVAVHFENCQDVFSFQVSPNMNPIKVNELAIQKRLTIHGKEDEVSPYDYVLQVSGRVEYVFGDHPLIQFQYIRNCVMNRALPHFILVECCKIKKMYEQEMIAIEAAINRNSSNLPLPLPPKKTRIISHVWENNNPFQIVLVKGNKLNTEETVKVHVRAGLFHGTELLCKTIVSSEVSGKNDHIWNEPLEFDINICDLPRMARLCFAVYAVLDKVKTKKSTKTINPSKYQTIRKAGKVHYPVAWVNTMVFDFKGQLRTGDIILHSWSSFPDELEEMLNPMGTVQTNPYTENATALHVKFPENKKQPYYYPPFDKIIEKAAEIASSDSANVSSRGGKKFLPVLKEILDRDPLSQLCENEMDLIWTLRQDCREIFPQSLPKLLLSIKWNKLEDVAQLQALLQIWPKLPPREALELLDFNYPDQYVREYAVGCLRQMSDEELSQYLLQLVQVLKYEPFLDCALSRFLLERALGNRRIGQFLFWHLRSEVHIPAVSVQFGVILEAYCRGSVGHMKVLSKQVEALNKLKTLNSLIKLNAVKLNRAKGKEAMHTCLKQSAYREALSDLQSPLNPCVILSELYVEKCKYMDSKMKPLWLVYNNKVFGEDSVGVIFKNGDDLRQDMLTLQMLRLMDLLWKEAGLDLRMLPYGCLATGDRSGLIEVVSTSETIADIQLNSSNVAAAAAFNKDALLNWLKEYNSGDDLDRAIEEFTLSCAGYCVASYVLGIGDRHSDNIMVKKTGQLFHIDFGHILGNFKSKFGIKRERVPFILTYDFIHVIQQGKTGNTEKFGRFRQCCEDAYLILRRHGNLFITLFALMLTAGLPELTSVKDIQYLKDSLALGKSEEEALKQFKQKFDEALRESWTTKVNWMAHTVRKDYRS
Sequence of PI3Kβ (P27986 whole entry partner, the tested form may be a part, canonical isoform): as the sequence (P27986 whole entry partner, the tested form may be a part, canonical isoform) above
Sequence of PI3Kγ (P48736 whole entry): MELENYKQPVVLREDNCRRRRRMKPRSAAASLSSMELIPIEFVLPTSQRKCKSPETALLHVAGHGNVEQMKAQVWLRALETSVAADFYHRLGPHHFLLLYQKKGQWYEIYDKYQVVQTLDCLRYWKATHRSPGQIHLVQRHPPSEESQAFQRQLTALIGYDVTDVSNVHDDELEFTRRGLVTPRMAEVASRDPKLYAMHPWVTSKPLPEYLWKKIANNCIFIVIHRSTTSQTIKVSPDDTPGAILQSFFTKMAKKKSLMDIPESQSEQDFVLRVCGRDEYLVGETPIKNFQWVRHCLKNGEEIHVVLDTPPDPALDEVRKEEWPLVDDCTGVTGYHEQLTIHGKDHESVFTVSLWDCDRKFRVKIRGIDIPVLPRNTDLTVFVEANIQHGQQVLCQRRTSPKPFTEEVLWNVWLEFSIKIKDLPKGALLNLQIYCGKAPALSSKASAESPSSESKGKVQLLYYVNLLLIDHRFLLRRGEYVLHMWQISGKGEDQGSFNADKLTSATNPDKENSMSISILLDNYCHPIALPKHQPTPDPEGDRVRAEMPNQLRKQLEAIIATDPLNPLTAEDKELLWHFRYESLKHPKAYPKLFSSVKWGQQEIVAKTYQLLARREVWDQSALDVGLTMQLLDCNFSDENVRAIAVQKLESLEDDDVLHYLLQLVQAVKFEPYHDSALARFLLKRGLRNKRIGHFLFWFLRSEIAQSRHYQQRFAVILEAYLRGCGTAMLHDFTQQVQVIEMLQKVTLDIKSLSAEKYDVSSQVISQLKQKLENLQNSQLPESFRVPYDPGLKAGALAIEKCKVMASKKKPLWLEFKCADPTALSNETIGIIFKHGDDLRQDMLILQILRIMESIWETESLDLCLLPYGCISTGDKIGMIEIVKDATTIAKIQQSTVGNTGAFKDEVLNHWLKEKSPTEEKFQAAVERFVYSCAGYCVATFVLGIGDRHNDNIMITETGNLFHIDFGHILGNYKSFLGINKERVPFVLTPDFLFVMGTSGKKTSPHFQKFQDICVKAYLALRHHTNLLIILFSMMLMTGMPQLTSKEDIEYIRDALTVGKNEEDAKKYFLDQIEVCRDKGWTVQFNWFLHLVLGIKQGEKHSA
Sequence of PI3Kγ (Q8WYR1 whole entry partner): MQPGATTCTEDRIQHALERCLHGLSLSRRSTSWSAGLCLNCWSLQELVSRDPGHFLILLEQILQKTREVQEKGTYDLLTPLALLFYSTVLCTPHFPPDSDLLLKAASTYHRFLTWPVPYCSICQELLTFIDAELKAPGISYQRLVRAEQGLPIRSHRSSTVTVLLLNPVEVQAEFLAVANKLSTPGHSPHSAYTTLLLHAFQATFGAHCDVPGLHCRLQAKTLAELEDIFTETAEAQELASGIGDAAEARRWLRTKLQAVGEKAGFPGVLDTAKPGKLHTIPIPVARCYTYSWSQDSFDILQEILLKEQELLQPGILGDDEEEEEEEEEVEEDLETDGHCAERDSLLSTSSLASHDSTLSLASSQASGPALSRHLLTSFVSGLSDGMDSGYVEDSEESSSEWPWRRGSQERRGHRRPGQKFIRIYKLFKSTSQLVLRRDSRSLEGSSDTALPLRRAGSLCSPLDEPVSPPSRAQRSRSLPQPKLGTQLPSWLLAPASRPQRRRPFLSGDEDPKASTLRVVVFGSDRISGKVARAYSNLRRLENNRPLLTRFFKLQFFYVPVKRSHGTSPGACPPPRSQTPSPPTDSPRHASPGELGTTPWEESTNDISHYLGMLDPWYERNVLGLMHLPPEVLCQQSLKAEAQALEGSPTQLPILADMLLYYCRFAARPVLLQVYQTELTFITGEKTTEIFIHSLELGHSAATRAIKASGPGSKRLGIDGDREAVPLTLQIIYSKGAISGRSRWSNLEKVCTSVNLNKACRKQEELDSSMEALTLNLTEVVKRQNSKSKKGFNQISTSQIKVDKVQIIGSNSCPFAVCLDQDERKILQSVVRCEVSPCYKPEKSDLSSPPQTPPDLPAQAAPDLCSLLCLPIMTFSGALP

A word on the IC50: it is the concentration that gives 50% inhibition. Consider `Cc1cccc(C#Cc2c(N)ncnc2N[C@@H](C)c2nc3cccc(Cl)c3c(=O)n2-c2ccccc2)n1` [Compound 141a, (S)-2-(1-((6-amino-5-((6-methylpyridin-2-yl)ethynyl)pyrimidin-4-yl)amino)ethyl)-5-chloro-3-phenylquinazolin-4(3H)-one], for which the IC50 against PI3Kα was > 1 µM; against PI3Kδ, < 100 nM; at PI3Kβ (bound given in nM) it was < 100 nM.

Consider `C[C@H](Nc1ncnc(N)c1C#Cc1cccc(N)n1)c1nc2cccc(Cl)c2c(=O)n1-c1cc(F)cc(F)c1` [Compound 15a, (S)-2-(1-(6-amino-5-((6-aminopyridin-2-yl)ethynyl)pyrimidin-4-ylamino)ethyl)-5-chloro-3-(3,5-difluorophenyl)quinazolin-4(3H)-one], for which the half-inhibitory concentration (IC50) at PI3Kδ and at PI3Kβ (bound given in nM) was < 100 nM in each case.

For `Cc1ccnc(C#Cc2c(N)ncnc2N[C@@H](C)c2nc3cccc(Cl)c3c(=O)n2-c2ccccc2)c1` [Compound 147a, (S)-2-(1-((6-amino-5-((4-methylpyridin-2-yl)ethynyl)pyrimidin-4-yl)amino)ethyl)-5-chloro-3-phenylquinazolin-4(3H)-one], the IC50 against PI3Kδ and against PI3Kβ (bound given in nM) was < 100 nM in each case.

Take `C[C@H](Nc1ncnc(N)c1C#Cc1ccc(C(F)(F)F)cn1)c1nc2cccc(Cl)c2c(=O)n1-c1cc(F)cc(F)c1` [Compound 134a, (S)-2-(1-((6-amino-5-((5-(trifluoromethyl)pyridin-2-yl)ethynyl)pyrimidin-4-yl)amino)ethyl)-5-chloro-3-(3,5-difluorophenyl)quinazolin-4(3H)-one]: the IC50 on PI3Kα was > 1 µM; on PI3Kβ (bound given in uM) it was > 1000 nM.

Take `Cc1ccc(C#Cc2c(N)ncnc2N[C@@H](C)c2nc3cccc(Cl)c3c(=O)n2-c2cc(F)cc(F)c2)nc1` [Compound 164a, (S)-2-(1-((6-amino-5-((5-methylpyridin-2-yl)ethynyl)pyrimidin-4-yl)amino)ethyl)-5-chloro-3-(3,5-difluorophenyl)quinazolin-4(3H)-one]: the results for the IC50 at PI3Kα, on PI3Kδ and on PI3Kβ (bound given in uM) were > 1 µM, < 100 nM and > 1000 nM, respectively.

Consider `C[C@H](Nc1ncnc(N)c1C#Cc1cnccn1)c1nc2cccc(Cl)c2c(=O)n1-c1ccccc1` [Compound 16a, (S)-2-(1-(6-amino-5-(pyrazin-2-ylethynyl)pyrimidin-4-ylamino)ethyl)-5-chloro-3-phenylquinazolin-4(3H)-one], for which the IC50 against PI3Kα was > 1 µM; against PI3Kδ it was < 100 nM; against PI3Kβ (bound given in nM), < 100 nM.

As for `C[C@H](Nc1ncnc(N)c1C#Cc1ccccn1)c1nc2cccc(Cl)c2c(=O)n1-c1ccccc1` [Compound 50a, (S)-2-(1-(6-amino-5-(pyridin-2-ylethynyl)pyrimidin-4-ylamino)ethyl)-5-chloro-3-phenylquinazolin-4(3H)-one], the IC50 at PI3Kδ and on PI3Kβ (bound given in nM) was < 100 nM in each case.

Take `Cc1ccc(F)c2nc([C@H](C)Nc3ncnc(N)c3C#Cc3cnccn3)n(-c3ccccc3)c(=O)c12` [Compound 75a, (S)-2-(1-((6-amino-5-(pyrazin-2-ylethynyl)pyrimidin-4-yl)amino)ethyl)-8-fluoro-5-methyl-3-phenylquinazolin-4(3H)-one]: the IC50 at PI3Kδ and on PI3Kβ (bound given in nM) was < 100 nM in each case.

Regarding `Cc1cccc2nc([C@H](C)Nc3ncnc(N)c3C#Cc3ccccn3)n(-c3ccccc3)c(=O)c12` [Compound 30a, (S)-2-(1-(6-amino-5-(pyridin-2-ylethynyl)pyrimidin-4-ylamino)ethyl)-5-methyl-3-phenylquinazolin-4(3H)-one], the IC50 against PI3Kδ and against PI3Kβ (bound given in nM) was < 100 nM in each case.

Consider `COC(=O)c1ccc(C#Cc2c(N)ncnc2N[C@@H](C)c2nc3cccc(Cl)c3c(=O)n2-c2ccccc2)nc1` [Compound 3a, (S)-methyl 6-((4-amino-6-(1-(5-chloro-4-oxo-3-phenyl-3,4-dihydroquinazolin-2-yl)ethylamino)pyrimidin-5-yl)ethynyl)nicotinate], for which the results for the IC50 against PI3Kα, against PI3Kδ and against PI3Kβ (bound given in uM) were > 1 µM, < 100 nM and > 1000 nM, respectively.

Regarding `C[C@H](Nc1ncnc(N)c1C#Cc1cc(C(N)=O)ccn1)c1nc2cccc(Cl)c2c(=O)n1-c1ccccc1` [Compound 156a, (S)-2-((4-amino-6-((1-(5-chloro-4-oxo-3-phenyl-3,4-dihydroquinazolin-2-yl)ethyl)amino)pyrimidin-5-yl)ethynyl)isonicotinamide], the IC50 against PI3Kδ and at PI3Kβ (bound given in nM) was < 100 nM in each case.

Regarding `C[C@H](Nc1ncnc(N)c1C#Cc1ccc(F)cn1)c1nc2c(F)ccc(Cl)c2c(=O)n1-c1cc(F)cc(F)c1` [Compound 84a, (S)-2-(1-((6-amino-5-((5-fluoropyridin-2-yl)ethynyl)pyrimidin-4-yl)amino)ethyl)-5-chloro-3-(3,5-difluorophenyl)-8-fluoroquinazolin-4(3H)-one], the IC50 is > 1 µM against PI3Kα, < 100 nM on PI3Kδ and > 1000 nM on PI3Kβ (bound given in uM).

For `C[C@H](Nc1ncnc(N)c1C#Cc1ccc(OC(F)(F)F)cc1)c1nc2cccc(Cl)c2c(=O)n1-c1ccccc1` [Compound 27a, (S)-2-(1-(6-amino-5-((4-(trifluoromethoxy)phenyl)ethynyl)pyrimidin-4-ylamino)ethyl)-5-chloro-3-phenylquinazolin-4(3H)-one], the values for the IC50 on PI3Kα, on PI3Kδ and against PI3Kβ (bound given in uM) were > 1 µM, < 100 nM and > 1000 nM, respectively.

`C[C@H](Nc1ncnc(N)c1C#Cc1ncccc1C(F)(F)F)c1nc2cccc(Cl)c2c(=O)n1-c1ccccc1` [Compound 142a, (S)-2-(1-((6-amino-5-((3-(trifluoromethyl)pyridin-2-yl)ethynyl)pyrimidin-4-yl)amino)ethyl)-5-chloro-3-phenylquinazolin-4(3H)-one]: the IC50 at PI3Kα was > 1 µM; against PI3Kδ it was < 100 nM; on PI3Kβ (bound given in nM), < 100 nM.

Take `C[C@H](Nc1ncnc(N)c1C#Cc1ccccc1)c1nc2cccc(S(C)(=O)=O)c2c(=O)n1-c1ccccc1` [Compound 112a, (S)-2-(1-((6-amino-5-(phenylethynyl)pyrimidin-4-yl)amino)ethyl)-5-(methylsulfonyl)-3-phenylquinazolin-4(3H)-one]: the IC50 was < 100 nM against PI3Kδ and > 1000 nM against PI3Kβ (bound given in uM).

Turning to `Cc1cccc2nc([C@H](C)Nc3ncnc(N)c3C#Cc3cnccn3)n(-c3ccccc3)c(=O)c12` [Compound 98a, (S)-2-(1-((6-amino-5-(pyrazin-2-ylethynyl)pyrimidin-4-yl)amino)ethyl)-5-methyl-3-phenylquinazolin-4(3H)-one], the IC50 at PI3Kδ and against PI3Kβ (bound given in nM) was < 100 nM in each case.

For the compound `C[C@H](Nc1ncnc(N)c1C#CC1CCCC1)c1nc2cccc(Cl)c2c(=O)n1-c1ccccc1` [Compound 144a, (S)-2-(1-((6-amino-5-(cyclopentylethynyl)pyrimidin-4-yl)amino)ethyl)-5-chloro-3-phenylquinazolin-4(3H)-one], the IC50 against PI3Kα was > 1 µM; against PI3Kδ, < 100 nM; at PI3Kγ, > 1 µM.

As to `C[C@H](Nc1ncnc(N)c1C#Cc1cnccn1)c1nc2cccc(Cl)c2c(=O)n1-c1cccnc1` [Compound 118a, (S)-2-(1-((6-amino-5-(pyrazin-2-ylethynyl)pyrimidin-4-yl)amino)ethyl)-5-chloro-3-(pyridin-3-yl)quinazolin-4(3H)-one], the values for the IC50 on PI3Kα, against PI3Kδ and at PI3Kγ were > 1 µM, < 100 nM and > 1 µM, respectively.

Take `COC(=O)c1ccnc(C#Cc2c(N)ncnc2N[C@@H](C)c2nc3cccc(Cl)c3c(=O)n2-c2ccccc2)c1` [Compound 158a, (S)-methyl 2-((4-amino-6-((1-(5-chloro-4-oxo-3-phenyl-3,4-dihydroquinazolin-2-yl)ethyl)amino)pyrimidin-5-yl)ethynyl)isonicotinate]: the IC50 on PI3Kα was > 1 µM; on PI3Kδ, < 100 nM; at PI3Kγ, > 1 µM.

Consider `Cc1nc(C#Cc2c(N)ncnc2N[C@@H](C)c2nc3cccc(Cl)c3c(=O)n2-c2ccccc2)ccc1F` [Compound 140a, (S)-2-(1-((6-amino-5-((5-fluoro-6-methylpyridin-2-yl)ethynyl)pyrimidin-4-yl)amino)ethyl)-5-chloro-3-phenylquinazolin-4(3H)-one], for which the IC50 on PI3Kα is > 1 µM; on PI3Kδ, < 100 nM; on PI3Kγ, > 1 µM.

`C[C@H](Nc1ncnc(N)c1C#Cc1ccc(F)cn1)c1nc2c(F)ccc(F)c2c(=O)n1-c1ccccc1` [Compound 4a, (S)-2-(1-(6-amino-5-((5-fluoropyridin-2-yl)ethynyl)pyrimidin-4-ylamino)ethyl)-5,8-difluoro-3-phenylquinazolin-4(3H)-one]: the IC50 was > 1 µM against PI3Kα, < 100 nM at PI3Kδ and > 1 µM on PI3Kγ.

Regarding `COc1cc(F)cc(C#Cc2c(N)ncnc2N[C@@H](C)c2nc3cccc(Cl)c3c(=O)n2N2CCOCC2)c1` [Compound 122a, (S)-2-(1-((6-amino-5-((3-fluoro-5-methoxyphenyl)ethynyl)pyrimidin-4-yl)amino)ethyl)-5-chloro-3-morpholinoquinazolin-4(3H)-one], the half-inhibitory concentration (IC50) against PI3Kα is > 1 µM; against PI3Kδ, < 100 nM; against PI3Kγ, > 1 µM.
